In PMC5584973, “Characterization of novel bangle lectin from Photorhabdus asymbiotica with dual sugar-binding specificity and its effect on host immunity” (PLoS Pathogens, 2017):
Read-outs that look alike come from different tables or passages of the source.

Columns and labels:
PHL [1] = molecular target: T1, PHL (Photorhabdus asymbiotica, UniProt C7BLE4); format: binding; details: calculated from hexaplicates
PHL [2] = molecular target: T1, PHL; assay: Haemagglutination inhibition assay with PHL; format: cell-based; details: for Potency towards L-fucose: haemagglutination inhibition, from MIC; for MIC (minimal inhibitory concentration) of haemagglutination by PHL: microscopy
Method: A haemagglutination inhibition assay was performed to determine the specificity and semi-quantitative affinity of PHL interaction with the saccharides. A wide range of monosaccharides at concentrations from 50 mM to 0.5 mM were used for determining the lowest inhibiting concentration. A 20 μl mixture composed of 5 μl PHL (2mg/ml), 5 μl saccharide, and 10 μl 10% RBCs was prepared (all components of reaction were in PBS buffer). After 10 minutes, the reaction was observed using a Levenhuk microscope.

PHL [3] = molecular target: T1, PHL; assay: SPR inhibition of PHL binding to immobilized L-fucoside; details: for Potency relative to L-Fuc: SPR inhibition, from IC50
Method: (§1) SPR inhibition experiments were performed using the same conditions described above. The PHL lectin (0.25 μM final concentration) was mixed with various concentrations of inhibitors (1M – 0.01 mM) and injected onto the sensor chip. Pure PHL lectin was used as a control (0% inhibition). The response of the lectin bound to the sugar surface at equilibrium was plotted against the concentration of inhibitor in order to determine IC50.

PHL [4] = molecular target: T1, PHL; assay: Isothermal titration calorimetry (ITC); format: binding; details: ITC at 25°C
Method: (§2) ITC experiments were performed using an ITC200 calorimeter (Malvern, England). Experiments were performed at 25°C in buffer A (300 mM NaCl, 20 mM Tris/HCl, pH 7.5). Carbohydrate ligands were dissolved in the same buffer. Protein in the cell (50 μM) was titrated by consecutive addition (2 μl) of the ligand in the syringe (1.5–50 mM) while stirring at 1000 rpm. Control experiments performed with injections of buffer in the protein solution yielded insignificant signals. Integrated heat effects were analyzed by nonlinear regression using a single-site binding model in Origin 7 (Microcal). The experimental data fitted to a theoretical titration curve brought up stoichiometry (n), association constant Ka, and the enthalpy of binding ΔH. The other thermodynamic parameters such as free energy (ΔG) and […] (ΔS) were calculated from the equation ΔG = ΔH-TΔS = -RTlnKa, where T is the absolute temperature and R is the molar gas constant (8.314 J.mol^-1.K^-1). At least two independent titrations were carried out for each tested ligand.

[5] = system: phenoloxidase (PO) in haemolymph of G. mellonella; assay: Phenoloxidase activity in insect haemolymph; format: biochemical, Galleria mellonella; details: 0.2M sugar, PHL 475 μg
Method: Larvae of the greater wax moth, Galleria mellonella, were reared on an artificial diet at 30 ± 1°C in constant darkness. Haemolymph was collected from the seventh instar larvae by cutting a proleg and pooling the haemolymph into a tube containing phenylthiourea (1 mg/ml in PBS; haemolymph mixed with phenylthiourea in the ratio 9:1 [v/v]) or used directly for the determination of phenoloxidase activity.
PO activity was measured according to previously published studies. Haemolymph of G. mellonella (5 μl) was collected directly to 95 μl of PHL (475 μg in PBS for all experiments except dose-dependence assay where different dilutions of PHL were used), PLL (475 μg in PBS), BSA (475 μg in PBS) or PBS (pH 7.4) and incubated for 10 min at room temperature. After incubation, 40 μl of reaction mixture was transported to the microplate well and 160 μl of 3,4-dihydroxy-DL-phenylalanine (3 mg/ml in PBS) was added as substrate. The reaction was allowed to proceed for 30 min, and absorbance was measured in 2-min intervals at 492 nm with a Sunrise reader (Tecan, Switzerland). PO activity was expressed as linear increase in absorbance per minute. For the inhibition assay, PHL was pre-incubated with 0.2M L-Fuc or Me-α-L-Fuc for 10 min at room temperature prior to mixing with haemolymph.

PHL [6] = assay: SPR inhibition of PHL binding to immobilized L-fucoside; set-up: species or system Photorhabdus asymbiotica; details: IC50 from SPR inhibition, PLL data ref 21
Method: as §1

PHL [7] = assay: Isothermal titration calorimetry (ITC); format: binding, Photorhabdus asymbiotica; details: ITC, PLL data ref 21
Method: as §2

[8] = glycan array signal of PHL per printed glycan, microarray chip (Semiotic, Moscow; Slide number 10085636), 488 channel
[9] = glycan array signal of labelled PHL for the printed glycan/polysaccharide, Semiotic slide 10085636
[10] = SPR, PHL 0.25 μM binding to immobilized L-fucoside, 25°C, read-out: IC50
[11] = stoichiometry fixed to 3, read-out: KD (n = 3)
[12] = stoichiometry fixed to 4, read-out: KD (n = 4)

T1 sequence (C7BLE4 1-369): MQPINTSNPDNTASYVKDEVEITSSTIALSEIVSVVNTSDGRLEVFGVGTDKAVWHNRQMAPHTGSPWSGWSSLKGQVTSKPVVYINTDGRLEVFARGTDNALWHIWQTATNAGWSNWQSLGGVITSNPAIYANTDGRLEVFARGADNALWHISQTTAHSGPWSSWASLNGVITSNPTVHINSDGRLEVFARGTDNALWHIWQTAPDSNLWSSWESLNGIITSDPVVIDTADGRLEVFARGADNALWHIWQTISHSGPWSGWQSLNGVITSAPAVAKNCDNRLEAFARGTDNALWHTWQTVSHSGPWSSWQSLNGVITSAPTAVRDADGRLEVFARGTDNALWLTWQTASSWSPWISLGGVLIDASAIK

Compound	Median (PHL [1]; [9])	Potency towards L-fucose (PHL [2])	Potency relative to L-Fuc (PHL [3])	Kd (PHL [4]; [11])	Kd (PHL [4]; [12])	also measured
Galβ1-4GlcNAcβ-sp8	–	–	–	–	–	Median (PHL [1]; [8]): 83
GalNAcα1-3Galβ1-4(Fucα1-3)GlcNAcβ-sp3	73	–	–	–	–	–
CC(=O)N[C@H]1C(O)O[C@H](CO)[C@@H](O[C@@H]2O[C@H](CO)[C@H](O)[C@H](O)[C@H]2O[C@@H]2O[C@@H](C)[C@@H](O)[C@@H](O)[C@@H]2O)[C@@H]1O (stereo partly drawn) [BGH trisaccharide]	–	<0.01	0.33	4440 ± 190 µM	4350 ± 190 µM	IC50 (PHL [3]; [10]): 1090 µM
CC(=O)N[C@@H]1[C@@H](O)[C@H](O)[C@@H](CO)O[C@@H]1O [D-GlcNAc, N-acetyl-D-glucosamine]	–	<0.01	0.01	–	–	IC50 (PHL [3]; [10]): 70500 µM
GalNAcβ1-4GlcNAcβ-sp2	–	–	–	–	–	Median (PHL [1]; [8]): 87
CC(=O)N[C@H]1C(O)O[C@H](CO)[C@@H](O)[C@@H]1O[C@@H]1O[C@@H](C)[C@@H](O)[C@@H](O)[C@@H]1O (stereo partly drawn) [Fucα1-3GlcNAc]	–	1.3	0.53	3520 ± 210 µM	3430 ± 210 µM	MIC (minimal inhibitory concentration) of haemagglutination by PHL (PHL [2]): 2500 µM; IC50 (PHL [3]; [10]): 690 µM
C[C@H](O)[C@@H](O)[C@@H](O)[C@H](O)C=O [L-Fuc, L-fucose]	–	1	–	1400 ± 30 µM	1330 ± 40 µM	PHL activation of melanisation in the presence of sugar [5]: inhibited; MIC (minimal inhibitory concentration) of haemagglutination by PHL (PHL [2]): 3125 µM; IC50 (PHL [3]): 360 µM; fold better inhibition effect for PHL than for PLL (PHL [6]): 15 fold; fold higher affinity of PHL than PLL (PHL [7]): approx. 4 fold
CC(=O)N[C@@H]1[C@@H](O)[C@H](O[C@@H]2O[C@H](CO)[C@@H](O)[C@H](O)[C@H]2NC(C)=O)[C@@H](CO)O[C@H]1NC(=O)C[C@H](N)C(=O)O [GlcNAcβ1-4GlcNAcβ-Asn]	77	–	–	–	–	–
Galα1-4GlcNAcβ-sp8	75	–	–	–	–	–
Galα1-3Galβ1-4GlcNAcβ-sp3	70	–	–	–	–	–
OC[C@H]1OC(O)[C@@H](O)[C@@H](O)[C@@H]1O (stereo partly drawn) [D-Man, D-mannose]	–	<0.01	< 0.01	44600 ± 2000 µM	44400 ± 2000 µM	–
CC(=O)N[C@H]1[C@@H](OC[C@H](N)C(=O)O)O[C@H](CO)[C@H](O)[C@@H]1O [GalNAcα1-OSer]	71	–	–	–	–	–
CO[C@H]1O[C@@H](C)[C@@H](O)[C@@H](O)[C@@H]1O [Me-β-L-Fuc, methyl-β-L-fucopyranoside]	–	0.5	0.47	3550 ± 90 µM	3480 ± 90 µM	MIC (minimal inhibitory concentration) of haemagglutination by PHL (PHL [2]): 6250 µM; IC50 (PHL [3]; [10]): 770 µM
Galβ1-4GlcNAcβ1-6(Galβ1-4GlcNAcβ1-3)GalNAcα-sp3	71	–	–	–	–	–
Curdlan	75	–	–	–	–	–
CC(=O)N[C@H]1[C@@H](O[C@H]2[C@@H](O)[C@@H](CO)O[C@@H](O)[C@@H]2O[C@@H]2O[C@@H](C)[C@@H](O)[C@@H](O)[C@@H]2O)O[C@H](CO)[C@H](O)[C@@H]1O [BGA trisaccharide]	–	1.3	1.21	1450 ± 30 µM	1380 ± 40 µM	MIC (minimal inhibitory concentration) of haemagglutination by PHL (PHL [2]): 2500 µM; IC50 (PHL [3]; [10]): 300 µM
GalNAcα1-3(Fucα1-2)Galβ1-4GlcNAcβ-sp3	–	–	–	–	–	Median (PHL [1]; [8]): 79
